Reference: patent US12077503B2, “Substituted cyclic amides and their use as herbicides” (FMC CORPORATION, priority 2015, dated 2024)
Read-outs that look alike come from different tables or passages of the source.

Assays:
Test in all cases: Test A preemergence
Type in all cases: in vivo
Kochia (Kochia scoparia) = conditions: Bassia scoparia, pre-emergence, 240 h; for pest or weed control at 125 g/ha: 125 g ai/ha; for pest or weed control at 500 g/ha: 500 g ai/ha
Procedure, shortened: (§1)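 In a loam soil and sand blend, planted seeds got a preemergence directed soil spray, and young plants at the one- to two-leaf stage, 2–10 cm high, got a postemergence application; ~10 d greenhouse hold; injury rated visually, 0 = none, 100 = complete control.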

[1] = test system: barnyardgrass (Echinochloa crus-galli); conditions: Echinochloa crus-galli, pre-emergence, 240 h; for pest or weed control at 125 g/ha: 125 g ai/ha; for pest or weed control at 500 g/ha: 500 g ai/ha
Procedure, shortened: as §1

[2] = test system: giant foxtail (Setaria faberii); conditions: Setaria faberi, pre-emergence, 240 h; for pest or weed control at 125 g/ha: 125 g ai/ha; for pest or weed control at 500 g/ha: 500 g ai/ha
Procedure, shortened: as §1

[3] = test system: ragweed (common ragweed, Ambrosia elatior); conditions: Ambrosia artemisiifolia, pre-emergence, 240 h; for pest or weed control at 125 g/ha: 125 g ai/ha; for pest or weed control at 500 g/ha: 500 g ai/ha
Procedure, shortened: as §1

[4] = test system: ryegrass, Italian (Italian ryegrass, Lolium multiflorum); conditions: Lolium multiflorum, pre-emergence, 240 h; for pest or weed control at 125 g/ha: 125 g ai/ha; for pest or weed control at 500 g/ha: 500 g ai/ha
Procedure, shortened: as §1

[5] = preemergence, 0 to 100 scale where 0 is no effect and 100 is complete control, read-out: Kochia plant response rating
[6] = Preemergence, visual injury vs untreated controls after approximately 10 d, read-out: Kochia plant response rating (0 to 100 scale where 0 is no effect and 100 is complete control)
[7] = preemergence, 0 to 100 scale where 0 is no effect and 100 is complete control, read-out: Barnyardgrass plant response rating
[8] = Preemergence, visual injury vs untreated controls after approximately 10 d, read-out: Barnyardgrass plant response rating (0 to 100 scale where 0 is no effect and 100 is complete control)
[9] = preemergence, 0 to 100 scale where 0 is no effect and 100 is complete control, read-out: Foxtail, Giant plant response rating
[10] = Preemergence, visual injury vs untreated controls after approximately 10 d, read-out: Foxtail, Giant plant response rating (0 to 100 scale where 0 is no effect and 100 is complete control)
[11] = preemergence, 0 to 100 scale where 0 is no effect and 100 is complete control, read-out: Ragweed plant response rating
[12] = Preemergence, visual injury vs untreated controls after approximately 10 d, read-out: Ragweed plant response rating (0 to 100 scale where 0 is no effect and 100 is complete control)
[13] = preemergence, 0 to 100 scale where 0 is no effect and 100 is complete control, read-out: Ryegrass, Italian plant response rating
[14] = Preemergence, visual injury vs untreated controls after approximately 10 d, read-out: Ryegrass, Italian plant response rating (0 to 100 scale where 0 is no effect and 100 is complete control)
[15] = Preemergence, visual injury rating after approximately 10 d, read-out: Kochia plant response rating (0 to 100 scale, 0 is no effect, 100 is complete control)
[16] = preemergence, visual injury rating about 10 d after treatment, 0 to 100 scale (0 no effect, 100 complete control), read-out: Kochia plant response rating
[17] = Preemergence, visual injury rating after approximately 10 d, read-out: Barnyardgrass plant response rating (0 to 100 scale, 0 is no effect, 100 is complete control)
[18] = preemergence, visual injury rating about 10 d after treatment, 0 to 100 scale (0 no effect, 100 complete control), read-out: Barnyardgrass plant response rating
[19] = Preemergence, visual injury rating after approximately 10 d, read-out: Foxtail, Giant plant response rating (0 to 100 scale, 0 is no effect, 100 is complete control)
[20] = preemergence, visual injury rating about 10 d after treatment, 0 to 100 scale (0 no effect, 100 complete control), read-out: Foxtail, Giant plant response rating
[21] = Preemergence, visual injury rating after approximately 10 d, read-out: Ragweed plant response rating (0 to 100 scale, 0 is no effect, 100 is complete control)
[22] = preemergence, visual injury rating about 10 d after treatment, 0 to 100 scale (0 no effect, 100 complete control), read-out: Ragweed plant response rating
[23] = Preemergence, visual injury rating after approximately 10 d, read-out: Ryegrass, Italian plant response rating (0 to 100 scale, 0 is no effect, 100 is complete control)
[24] = preemergence, visual injury rating about 10 d after treatment, 0 to 100 scale (0 no effect, 100 complete control), read-out: Ryegrass, Italian plant response rating

Structure (SMILES) | pest or weed control at 125 g/ha (Kochia (Kochia scoparia); [5]) | pest or weed control at 500 g/ha (Kochia (Kochia scoparia); [6]) | pest or weed control at 125 g/ha [1, 7] | pest or weed control at 500 g/ha [1, 8] | pest or weed control at 125 g/ha [2, 9] | pest or weed control at 500 g/ha [2, 10] | pest or weed control at 125 g/ha [3, 11] | pest or weed control at 500 g/ha [3, 12] | pest or weed control at 125 g/ha [4, 13] | pest or weed control at 500 g/ha [4, 14] | pest or weed control at 125 g/ha (Kochia (Kochia scoparia); [15]) | pest or weed control at 125 g/ha [1, 17] | pest or weed control at 125 g/ha [2, 19] | pest or weed control at 125 g/ha [3, 21] | pest or weed control at 125 g/ha [4, 23] | also measured
COc1c(F)ccc([C@H]2CN(C)C(=O)[C@@H]2C(=O)Nc2ccccc2C(F)(F)F)c1Cl [Compound 896] | 30% | 50% | 90% | 90% | 90% | 100% | 0% | 0% | 40% | 70% |  |  |  |  |  | 
O=C1NC[C@H](c2ccc3c(c2)CCC3)[C@H]1C(=O)Nc1cccc(F)c1F [Compound 1046] |  |  |  |  |  |  |  |  |  |  | 60% | 90% | 80% | 40% | 60% | pest or weed control at 500 g/ha (Kochia (Kochia scoparia); [16]): 70%; pest or weed control at 500 g/ha [1, 18]: 90%; pest or weed control at 500 g/ha [2, 20]: 90%; pest or weed control at 500 g/ha [3, 22]: 70%; pest or weed control at 500 g/ha [4, 24]: 60%
O=C1NC[C@H](c2ccc3c(c2)OCO3)[C@H]1C(=O)Nc1ccc(F)c(F)c1F [Compound 1027] |  |  |  |  |  |  |  |  |  |  | 80% | 90% | 40% | 70% | 30% | pest or weed control at 500 g/ha (Kochia (Kochia scoparia); [16]): 90%; pest or weed control at 500 g/ha [1, 18]: 90%; pest or weed control at 500 g/ha [2, 20]: 90%; pest or weed control at 500 g/ha [3, 22]: 80%; pest or weed control at 500 g/ha [4, 24]: 0%
Cc1cc(C)cc([C@H]2CNC(=O)[C@@H]2C(=O)Nc2ccccc2F)c1 [Compound 888] | 60% | 80% | 90% | 90% | 80% | 90% | 0% | 0% | 0% | 60% |  |  |  |  |  | 
Cc1cc(C)cc([C@H]2CN(C)C(=O)[C@@H]2C(=O)Nc2cccc(F)c2F)c1 [Compound 911] | 90% | 100% | 90% | 100% | 90% | 100% | 0% | 60% | 70% | 90% |  |  |  |  |  | 
O=C1NC[C@H](c2cc(F)c(C(F)(F)F)c(F)c2)[C@H]1C(=O)Nc1ccccc1F [Compound 837] | 90% | 90% | 90% | 90% | 90% | 90% | 70% | 70% | 50% | 70% |  |  |  |  |  | 
Cc1c(F)ccc([C@H]2CNC(=O)[C@@H]2C(=O)Nc2ccccc2C(F)(F)F)c1F [Compound 831] | 0% | 0% | 50% | 70% | 90% | 90% | 0% | 0% | 30% | 50% |  |  |  |  |  | 
CCOc1cc([C@H]2CN(C)C(=O)[C@@H]2C(=O)Nc2cccc(F)c2F)cc(C(F)(F)F)c1 [Compound 971] |  |  |  |  |  |  |  |  |  |  | 0% | 90% | 90% | 20% | 80% | pest or weed control at 31 g/ha (Kochia (Kochia scoparia); Preemergence, 31 g ai/ha, 0 to 100 scale (0 no effect, 100 complete control), read-out: Plant response rating, Kochia): 0%; pest or weed control at 31 g/ha ([1]; Preemergence, 31 g ai/ha, 0 to 100 scale (0 no effect, 100 complete control), read-out: Plant response rating, Barnyardgrass): 70%; pest or weed control at 31 g/ha ([2]; Preemergence, 31 g ai/ha, 0 to 100 scale (0 no effect, 100 complete control), read-out: Plant response rating, Foxtail, Giant): 70%; pest or weed control at 31 g/ha ([3]; Preemergence, 31 g ai/ha, 0 to 100 scale (0 no effect, 100 complete control), read-out: Plant response rating, Ragweed): 0%; pest or weed control at 31 g/ha ([4]; Preemergence, 31 g ai/ha, 0 to 100 scale (0 no effect, 100 complete control), read-out: Plant response rating, Ryegrass, Italian): 50%
CN1C[C@H](c2cccc(OC(F)(F)C(F)F)c2)[C@@H](C(=O)Nc2ccccc2S(C)(=O)=O)C1=O [Compound 864] | 60% | 80% | 90% | 90% | 90% | 90% | 20% | 50% | 0% | 50% |  |  |  |  |  | 
CN1CC[C@H](c2cccc(Cl)c2)[C@@H](C(=O)Nc2cccc(Cl)c2F)C1=O [Compound 924] | 0% | 0% | 90% | 90% | 90% | 90% | 0% | 0% | 20% | 70% |  |  |  |  |  | 
